Where only a bound is given, the exact number is not on record here.

In general, EC50 refers to the concentration needed to bring the measured effect to its halfway point.

Test system in the first series: not listed separately
Briefly: In Vitro Liver Microsomes Metabolic Stability Assay, mouse. The series is classed as in vitro ADME. The settings on record: mouse liver microsomes 0.5 mg/mL, 1 μM compound, NADPH, 0 and 30 min; scale-up CLint; read-out: CLint, Mouse LM. The procedure: (§1) In Vitro Liver Microsomes Metabolic Stability Assay of Different Species
(§2) 1. The liver microsomes were stored at −80° C. prior to use.
(§3) 2. The master solution was prepared according to Table 3.
(§4) 3. 40 μL of 10 mM NADPH solution was added to each well. The final concentrations of NADPH was 1 mM. The mixture was pre-warmed at 37° C. for 5 minutes. The negative control samples were prepared by replacing NADPH solutions with 40 μL of ultra-pure H2O. The negative control was used to exclude the misleading factor that resulted from instability of chemical itself. Samples with NADPH were prepared in duplicate. Negative controls were prepared in singlet.
(§5) 4. The reaction was started with the addition of 2 μL of 200 μM control compound or test compound solutions. Verapamil was used as positive control in this study. The final concentration of test compound or control compound was 1 μM.
(§6) 5. Aliquots of 50 μL were taken from the reaction solution at 0 and 30 minutes. The reaction was stopped by the addition of 4 volumes of cold acetonitrile with Internal Standard (100 nM alprazolam, 200 nM imipramine, 200 nM labetalol and 2 μM ketoprofen). Samples were centrifuged at 3, 220 g for 40 minutes. Aliquot of 90 μL of the supernatant was mixed with 90 μL of ultra-pure H2O and then used for LC-MS/MS analysis.
(§7) Peak areas were determined from extracted ion chromatograms. The slope value, k, was determined by linear regression of the natural logarithm of the remaining percentage of the parent drug vs. incubation time curve.
(§8) The in vitro half-life (in vitro t1/2) was determined from the slope value:
(§9) Conversion of the in vitro t1/2 (min) into the in vitro intrinsic clearance (in vitro CLint, in μL/min/mg protein) was done using the following equation (mean of duplicate determinations): […]
(§10) Conversion of the in vitro t1/2 (min) into the scale-up unbound intrinsic clearance (Scale-up CLint, in mL/min/kg) was done using the following equation (mean of duplicate determinations): […]
Background: Microsomes from liver hold many membrane-bound enzymes, among them those of drug oxidation.
Turning to `Cc1nc2ccn(Cc3ccc(Cl)cc3)c(=O)c2cc1C(=O)NCc1ccc(F)cn1` [Example 51, 6-(4-chlorobenzyl)-N-((5-fluoropyridin-2-yl)methyl)-2-methyl-5-oxo-5,6-dihydro-1,6-naphthyridine-3-carboxamide], the CLint scaled at 1 μM worked out at 140 mL/min/kg.

Test system in the next series: not listed separately
Briefly: In Vitro Liver Microsomes Metabolic Stability Assay, rat. The series is classed as in vitro ADME. Particulars: rat liver microsomes 0.5 mg/mL, 1 μM compound, NADPH, 0 and 30 min; scale-up CLint; read-out: CLint, Rat LM. The method, then: as §1, §2, §3, §4, §5, §6, §7, §8, §9, §10
On to `Cc1nc2ccn(Cc3ccc(Cl)cc3)c(=O)c2cc1C(=O)NCc1ccc(F)cn1` [Example 51, 6-(4-chlorobenzyl)-N-((5-fluoropyridin-2-yl)methyl)-2-methyl-5-oxo-5,6-dihydro-1,6-naphthyridine-3-carboxamide], for which the CLint scaled at 1 μM amounted to 42 mL/min/kg.

The target of the next series is T1, TFEB (Homo sapiens, UniProt P19484).
T1 sequence (P19484 1-476): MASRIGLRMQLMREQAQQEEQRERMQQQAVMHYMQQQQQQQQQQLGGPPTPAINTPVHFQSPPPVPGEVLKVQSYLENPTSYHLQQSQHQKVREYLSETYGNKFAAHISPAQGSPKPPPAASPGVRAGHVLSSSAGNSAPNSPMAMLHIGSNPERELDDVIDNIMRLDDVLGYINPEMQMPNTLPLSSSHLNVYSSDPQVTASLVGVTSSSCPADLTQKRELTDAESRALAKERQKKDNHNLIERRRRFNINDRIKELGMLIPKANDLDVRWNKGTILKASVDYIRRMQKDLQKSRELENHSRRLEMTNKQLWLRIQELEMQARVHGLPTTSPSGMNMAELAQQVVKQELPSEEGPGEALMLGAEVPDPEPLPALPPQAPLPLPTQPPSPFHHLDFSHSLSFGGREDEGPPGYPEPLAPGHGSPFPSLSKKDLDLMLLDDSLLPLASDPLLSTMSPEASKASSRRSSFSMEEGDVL
Briefly: Tfeb-Translocation Assay HEK-293T-oEX-Tfeb-GFP Cell Line. The class given is cell-based. Particulars: HEK-293T-oEX-TFEB-GFP cells; reference compound; read-out: EC50 of reference compound (TFEB translocation). The procedure: Tfeb-Translocation Assay HEK-293T-oEX-Tfeb-GFP Cell Line
• 1). Added 2×10^6 cell into a T75 flask with 15 mL DiVEM medium (with 10% FBS, 1% PS, 1×GLUTAMAX, 1×MEM NEAA, 1×HEPES Buffer Solution and 5 ug/mL blasticidin). • 2). Culturing for 48-72 hours. Cells in logarithmic growth phase were taken for experiment. The other cells were passaged as described in step 1. • 3). Seeded 1×10^4 cells/30 μL/well into 384-well plate (BD 356663). Cultured overnight at 37° C. & 5% CO2 incubator. • 4). Note: Used cells <10 passage
• 1). Compounds were firstly diluted by DMSO to the stock needed (10 mM), and aliquoted and stored at −20° C. • 2). Took one aliquot each time and made 3-fold or 2-fold dilutions as indicated, total 10 doses plus one DMSO control well in the source plate. • 3). Added 150 or 90 nL/well compounds solution to the assay plate by ECHO and incubated for 6 or 18 hours respectively at 37° C. & 5% CO2 incubator.
• 1). Added 30 uL 8% PFA into the wells and incubated 20 min at room temperature. • 2). Discarded the medium, washed the wells twice with DPBS to eliminate foam and bubbles in the well.
• 1). Diluted Hoechest-333824 in DPBS to get 2 μg/mL solution and added 30 uL/well into assay plate, incubated at room temperature for 20 mins. • 2). Discarded the supernatant, washed the wells twice with DPBS to eliminate foam and bubbles in the well. Then added DPBS 20 uL/well.
3). Scanned Plate by Operetta.
• 1). Reference compound: Torin 1 • 2). Test compounds: C1, C2, C3, C4, C5, C6. • 3). Diluted compounds in 384 LDV-dilution plate according to the dilution plate map • 4). Compounds starting concentration: Torin 1: 300 nM and Test compounds: 50 uM.
• 1). Selected all nucleus by Operetta as ‘All Cells’ • 2). Calculated the EGFP average intensity inside the Nucleus region. • 3). Selected population that the EGFP mean intensity inside the Nucleus region>background as the EGFP-positive cells • 4). Selected the Surrounding region of the nucleus and calculated the EGFP mean intensity of the region • 5). Inside the EGFP-positive cell population, selected the cells with EGFP mean intensity inside the Nucleus region/the EGFP mean intensity inside the surrounding region=1.2 (This ratio could be slightly adjusted from time to time) as the Translocation positive cell. • 6). Outputted the ratio of Translocation positive cell/EGFP-positive cells as the Translocation Positive Ratio. • 7). Each time set the ratio of DMSO group (Control Group) as ˜15% and then normalized the compound group to the DMSO group.
Consider `CCC(=O)N1CCN(c2ccc(-n3c(=O)ccc4cnc5ccc(-c6cnc7ccccc7c6)cc5c43)cc2C(F)(F)F)CC1` [Torin 1, reference compound], for which the EC50 worked out at 28.3 nM.

The same series, now with this note: HEK-293T-oEX-TFEB-GFP cells; translocation positive cells ratio; read-out: TFEB Translocation EC50.
For the compound `Cc1nc2ccn(Cc3ccc(Cl)cc3)c(=O)c2cc1C(=O)NCc1ccc(F)cn1` [Example 51, 6-(4-chlorobenzyl)-N-((5-fluoropyridin-2-yl)methyl)-2-methyl-5-oxo-5,6-dihydro-1,6-naphthyridine-3-carboxamide], the EC50 is less than 100 nM.

For `Cc1nc2ccn(Cc3ccc(F)c(F)c3)c(=O)c2cc1C(=O)NCc1ccc(F)cn1` [Example 63, 6-(3,4-difluorobenzyl)-N-((5-fluoropyridin-2-yl)methyl)-2-methyl-5-oxo-5,6-dihydro-1,6-naphthyridine-3-carboxamide], the EC50 is less than 100 nM.

Consider `COCCOCCOc1ccc(Cn2ccc3nc(C)c(C(=O)NCc4ccc(Cl)cn4)cc3c2=O)cc1` [Example 64, N-((5-chloropyridin-2-yl)methyl)-6-(4-(2-(2-methoxyethoxy)ethoxy)benzyl)-2-methyl-5-oxo-5,6-dihydro-1,6-naphthyridine-3-carboxamide], for which the EC50 was in the range of 1000 to 10000 nM.

Turning to `Cc1nc2ccn(Cc3ccccc3)c(=O)c2cc1C(=O)NCc1ccc(OC(C)C)cc1` [Example 67, 6-benzyl-N-(4-isopropoxybenzyl)-2-methyl-5-oxo-5,6-dihydro-1,6-naphthyridine-3-carboxamide], the EC50 is no less than 10000 nM.

For `Cc1ccc(CNC(=O)c2cc3c(=O)n(Cc4ccccc4)ccc3nc2C)cc1` [Example 68, 6-benzyl-2-methyl-N-(4-methylbenzyl)-5-oxo-5,6-dihydro-1,6-naphthyridine-3-carboxamide], the EC50 lay within 100 to 1000 nM.

As for `Cc1nc2ccn(Cc3ccccc3)c(=O)c2cc1C(=O)NCc1ccc2c(c1)OCO2` [Example 69, N-(benzo[d][1,3]dioxol-5-ylmethyl)-6-benzyl-2-methyl-5-oxo-5,6-dihydro-1,6-naphthyridine-3-carboxamide], the EC50 was less than 100 nM.

As for `Cc1ccc(CNC(=O)c2cc3c(=O)n(Cc4cccs4)ccc3nc2C)o1` [Example 70, 2-methyl-N-((5-methylfuran-2-yl)methyl)-5-oxo-6-(thiophen-2-ylmethyl)-5,6-dihydro-1,6-naphthyridine-3-carboxamide], the EC50 was less than 100 nM.

With `Cc1nc2ccn(Cc3ccccc3)c(=O)c2cc1C(=O)NCc1cccs1` [Example 71, 6-benzyl-2-methyl-5-oxo-N-(thiophen-2-ylmethyl)-5,6-dihydro-1,6-naphthyridine-3-carboxamide], the EC50 lay in the range of 100 to 1000 nM.

For the compound `COCCn1ccc2nc(C)c(C(=O)NCc3ccc(C)o3)cc2c1=O` [Example 72, 6-(2-methoxyethyl)-2-methyl-N-((5-methylfuran-2-yl)methyl)-5-oxo-5,6-dihydro-1,6-naphthyridine-3-carboxamide], the 50% effective concentration (EC50) was in the range of 100 to 1000 nM.

On to `Cc1nc2ccn(Cc3ccccc3)c(=O)c2cc1C(=O)NCCc1ccco1` [Example 73, 6-benzyl-N-(2-(furan-2-yl)ethyl)-2-methyl-5-oxo-5,6-dihydro-1,6-naphthyridine-3-carboxamide], for which the EC50 was 1000 to 10000 nM.

As for `Nc1nc2ccn(Cc3ccccc3)c(=O)c2cc1C(=O)NCc1ccccn1` [Example 74, 2-amino-6-benzyl-5-oxo-N-(pyridin-2-ylmethyl)-5,6-dihydro-1,6-naphthyridine-3-carboxamide], the EC50 fell in the range of 1000 to 10000 nM.

Regarding `Cc1nc2ccn(Cc3ccc(Cl)c(F)c3)c(=O)c2cc1C(=O)NCc1ccccn1` [Example 75, 6-(4-chloro-3-fluorobenzyl)-2-methyl-5-oxo-N-(pyridin-2-ylmethyl)-5,6-dihydro-1,6-naphthyridine-3-carboxamide], the EC50 was less than 100 nM.

`Cc1nc(CNC(=O)c2cc3c(=O)n(Cc4ccc(F)c(F)c4)ccc3nc2C)co1` [Example 76, 6-(3,4-difluorobenzyl)-2-methyl-N-((2-methyloxazol-4-yl)methyl)-5-oxo-5,6-dihydro-1,6-naphthyridine-3-carboxamide]: the EC50 was less than 100 nM.

With `COCCOCCOc1ccc(CNC(=O)c2cc3c(=O)n(Cc4ccc(Cl)cc4)ccc3nc2C)nc1` [Example 77, 6-(4-chlorobenzyl)-N-((5-(2-(2-methoxyethoxy)ethoxy)pyridin-2-yl)methyl)-2-methyl-5-oxo-5,6-dihydro-1,6-naphthyridine-3-carboxamide], the EC50 is no less than 10000 nM.

Turning to `Cc1nc(CNC(=O)c2cc3c(=O)n(Cc4ccc(F)cc4)ccc3nc2C)co1` [Example 78, 6-(4-fluorobenzyl)-2-methyl-N-((2-methyloxazol-4-yl)methyl)-5-oxo-5,6-dihydro-1,6-naphthyridine-3-carboxamide], the EC50 is less than 100 nM.

Consider `Cc1nc(CNC(=O)c2cc3c(=O)n(Cc4cccc(F)c4)ccc3nc2C)co1` [Example 79, 6-(3-fluorobenzyl)-2-methyl-N-((2-methyloxazol-4-yl)methyl)-5-oxo-5,6-dihydro-1,6-naphthyridine-3-carboxamide], for which the EC50 is less than 100 nM.

`Cc1nc(CNC(=O)c2cc3c(=O)n(Cc4ccc(Cl)cc4)ccc3nc2C)co1` [Example 80, 6-(4-chlorobenzyl)-2-methyl-N-((2-methyloxazol-4-yl)methyl)-5-oxo-5,6-dihydro-1,6-naphthyridine-3-carboxamide]: the EC50 was less than 100 nM.

Take `Cc1nc(CNC(=O)c2cc3c(=O)n(Cc4cc(F)cc(F)c4)ccc3nc2C)co1` [Example 81, 6-(3,5-difluorobenzyl)-2-methyl-N-((2-methyloxazol-4-yl)methyl)-5-oxo-5,6-dihydro-1,6-naphthyridine-3-carboxamide]: the EC50 is less than 100 nM.
